Data: US20080015166A1, “Barrier Integrity in Hiv Patients” (N.V. Nutricia, priority 2004, published 2008)

Experiments:
[1] = tested on: intestinal epithelial cell lines T84 monolayers; test: Effect of LC-PUFA on basal (spontaneous) barrier integrity: TER and 4 kD FITC dextran flux in T84 monolayers; type: cell-based, human; conditions: for effect on epithelial resistance (in words) / effect on molecular flux (in words): 100 μM, 72 hr, Table 1; for basal barrier integrity (TER), FIG. 1 (in words): time and dose (10 μM and 100 μM) dependent
Description: (§1) Monolayers (MC) of intestinal epithelial cell lines T84 (American Type Culture Collection (ATTC), Manassas, USA) were cultured on transwell filters (Corning, Costar B V, The Netherlands) allowing both mucosal and serosal sampling and stimulation of human intestinal epithelial cells. Two weeks post confluency the monolayers were incubated in the luminal compartment with polyunsaturated fatty acids ARA (arachidonic acid; 5,8,11,14-eicosatetraenoic acid), DHA (cis-4,7,10,13,16,19 docosahexaenoic acid), EPA (eicosapentaenoic acid) or control palmitic (C 16:0) acid (Palm) (Sigma, St. Louis, USA). The latter procedure was chosen to mimic the in vivo administration route of the dietary compounds. Cells were incubated with ARA, DHA, EPA, GLA or palmitic acid for 0, 24, 48 and 72 hr at different concentrations (10 μM and 100 μM). Experiments were performed to evaluate basal barrier integrity. The epithelial barrier function was determined by measuring the transepithelial resistance (TER, Ω.cm^2) was measured by epithelial volt-ohm meter (EVOM; World Precision Instruments, Germany) and permeability for 4 kD FITC dextran (paracellular permeability marker, Sigma, USA). Resistance (. Epithelial permeability for 4 kDa FITC-dextran was determined as follows. Prior to dextran fluxes the medium was refreshed with culture medium without phenol red for one hour followed by addition of 5 μl (stock 100 mg/ml) 4 kDa FITC-dextran to the lumenal compartment. After 30 min incubation 100 μl sample was collected from the serosal compartment and the fluorescent signal measured at excitation wavelength 485 nm and emission 520 nm (FLUOstar Galaxy®, BMG Labtechnologies, USA). FITC-dextran fluxes were calculated as pmol FITC-dextran/cm^2/h. Statistical analyses were performed using the ANOVA (SPSS version 10).

[2] = tested on: intestinal epithelial cell lines T84 monolayers incubated with IL-4; test: Effect of LC-PUFA on IL-4 mediated barrier disruption: TER and flux in T84 monolayers; type: cell-based, human; conditions: for Permeability (IL-4 Flux) / Resistance (IL-4 TER) / effect on IL-4 mediated barrier disruption (flux), in words: 100 μM; for Permeability (IL-4 Flux) / Resistance (IL-4 TER): 48 hr pre-incubation then 48 hr co-incubation with IL-4 2 ng/ml; for effect on IL-4 mediated barrier disruption (flux), in words: Table 2; for IL-4 mediated barrier destruction (Flux), FIG. 2 (in words): time and dose (10 μM and 100 μM) dependent, 4 kD dextran flux
Description: as §1
Monolayers (MC) of intestinal epithelial cell lines T84 (ATCC, USA) were cultured on transwell filters (Corning, Costar B V, The Netherlands) allowing both mucosal and serosal sampling and stimulation of human intestinal epithelial cells. Two weeks post confluency the monolayers were incubated in the presence of IL-4 (2 ng/ml, serosal compartment, Sigma, USA ) with or without polyunsaturated fatty acids ARA, DHA, GLA, EPA, or control palmitic acid (10 μM or 100 μM, mucosal compartment, Sigma, St. Louis, USA). Cells were pre-incubated with GLA, ARA, DHA, EPA, or palmitic acid for 48 hr prior to the IL-4 incubation. The co-incubation of PUFA's and palmetic acid with IL-4 was continued for another 48 hr; while culture medium and additives were changed every 24 hr. The epithelial barrier function was determined by measuring the transepithelial resistance (TER) and permeability as described in example 1. Statistical evaluation was performed as described in example 1.

[3] = tested on: MUC-2 expression in intestinal epithelial T84 cells; conditions: 24 h, 0.025-4.0 mM, MC T84 and CC T84, compared to propionate and butyrate

| SMILES | effect on epithelial resistance (in words) [1] | effect on molecular flux (in words) [1] | basal barrier integrity (TER), FIG. 1 (in words) [1] | Permeability (IL-4 Flux) [2] | Resistance (IL-4 TER) [2] | effect on IL-4 mediated barrier disruption (flux), in words [2] | IL-4 mediated barrier destruction (Flux), FIG. 2 (in words) [2] | stimulating MUC-2 expression (mucus production), FIG. 4 (in words) [3] |
| --- | --- | --- | --- | --- | --- | --- | --- | --- |
| CCCCCC=CCC=CCC=CCC=CCCCC(=O)O [ARA, 5,8,11,14-eicosatetraenoic acid] | improve epithelial resistance | reduce the molecular flux | increased resistance | 273 ↓ pmol FITC-dextran/cm^2/h | 337 ↑ Ω.cm^2 | inhibit the increased flux caused by IL-4 | decreased 4 kD dextran flux | – |
| CCC=CCC=CCC=CCC=CCC=CC/C=C\CCC(=O)O [DHA, cis-4,7,10,13,16,19 docosahexaenoic acid] | improve epithelial resistance | reduce the molecular flux | increased resistance | 304 ↓ pmol FITC-dextran/cm^2/h | 328 ↑ Ω.cm^2 | inhibit the increased flux caused by IL-4 | decreased 4 kD dextran flux | – |
| CC/C=C\C/C=C\C/C=C\C/C=C\C/C=C\CCCC(=O)O [EPA, eicosapentaenoic acid] | – | – | – | 236 ↓ pmol FITC-dextran/cm^2/h | 375 ↑ Ω.cm^2 | – | – | – |
| CCCCC/C=C\C/C=C\C/C=C\CCCCC(=O)O [GLA, gamma linolenic acid] | improve epithelial resistance | reduce the molecular flux | increased resistance | 360 ↓ pmol FITC-dextran/cm^2/h | 331 ↑ Ω.cm^2 | inhibit the increased flux caused by IL-4 | decreased 4 kD dextran flux | – |
| CCCCCCCCCCCCCCCC(=O)O [Palmitic acid, palmitic acid, reference compound] | opposite effects | opposite effects | – | – | – | detrimental effect | – | – |
| CC(=O)O [acetate] | – | – | – | – | – | – | – | more potent |
